Reference: PubChem BioAssay (NCI)
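Five compound concentrations were applied to cells in 96-well plates for 48 hours; endpoints were derived by simple linear interpolation of the resulting dose-response curve. TGI marks complete inhibition of growth.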

How the values were obtained:
Experiment in all cases: DTP human tumour cell line panel, 48 h
786-0 renal = system: 786-0 renal
A498 renal = system: A498 renal
A549 NSCLC = system: A549 NSCLC
ACHN renal = system: ACHN renal
BT-549 breast = system: BT-549 breast
CAKI-1 renal = system: CAKI-1 renal
CCRF-CEM leukemia = system: CCRF-CEM leukemia
COLO 205 colon = system: COLO 205 colon
DU-145 prostate = system: DU-145 prostate
EKVX NSCLC = system: EKVX NSCLC
HCC-2998 colon = system: HCC-2998 colon
HCT-116 colon = system: HCT-116 colon
HCT-15 colon = system: HCT-15 colon
HL-60(TB) leukemia = system: HL-60(TB) leukemia
HOP-62 NSCLC = system: HOP-62 NSCLC
HOP-92 NSCLC = system: HOP-92 NSCLC
HS 578T breast = system: HS 578T breast
HT29 colon = system: HT29 colon
IGROV1 ovarian = system: IGROV1 ovarian
K-562 leukemia = system: K-562 leukemia
KM12 colon = system: KM12 colon
LOX IMVI melanoma = system: LOX IMVI melanoma
M14 melanoma = system: M14 melanoma
MALME-3M melanoma = system: MALME-3M melanoma
MCF7 breast = system: MCF7 breast
MDA-MB-231 breast = system: MDA-MB-231 breast
MDA-MB-435 = system: MDA-MB-435
MDA-N = system: MDA-N
MOLT-4 leukemia = system: MOLT-4 leukemia
NCI-H226 lung = system: NCI-H226 lung
NCI-H23 lung = system: NCI-H23 lung
NCI-H460 lung = system: NCI-H460 lung
NCI-H522 lung = system: NCI-H522 lung
NCI/ADR-RES ovarian = system: NCI/ADR-RES ovarian
OVCAR-3 ovarian = system: OVCAR-3 ovarian
OVCAR-4 ovarian = system: OVCAR-4 ovarian
OVCAR-5 ovarian = system: OVCAR-5 ovarian
OVCAR-8 ovarian = system: OVCAR-8 ovarian
PC-3 prostate = system: PC-3 prostate
RPMI-8226 leukemia = system: RPMI-8226 leukemia
RXF 393 renal = system: RXF 393 renal
SF-268 CNS = system: SF-268 CNS
SF-295 CNS = system: SF-295 CNS
SF-539 CNS = system: SF-539 CNS
SK-MEL-2 melanoma = system: SK-MEL-2 melanoma
SK-MEL-28 melanoma = system: SK-MEL-28 melanoma
SK-MEL-5 melanoma = system: SK-MEL-5 melanoma
SK-OV-3 ovarian = system: SK-OV-3 ovarian
SN12C renal = system: SN12C renal
SNB-19 CNS = system: SNB-19 CNS
SNB-75 CNS = system: SNB-75 CNS
SW-620 colon = system: SW-620 colon
T-47D breast = system: T-47D breast
TK-10 renal = system: TK-10 renal
U251 CNS = system: U251 CNS
UACC-257 melanoma = system: UACC-257 melanoma
UACC-62 melanoma = system: UACC-62 melanoma
UO-31 renal = system: UO-31 renal
SR leukemia = system: SR leukemia

With `Cc1c(Cl)c(C)c(Cl)c(O)c1Cl` the TGI (786-0 renal) was > 100 µM, the TGI (A498 renal) was 68.7 µM and the TGI (A549 NSCLC) was 71.9 µM. The TGI (ACHN renal) was 72.5 µM, the TGI (BT-549 breast) was 81.7 µM and the TGI (CAKI-1 renal) was 62.7 µM. The TGI (CCRF-CEM leukemia) was > 100 µM, the TGI (COLO 205 colon) was > 100 µM and the TGI (DU-145 prostate) was > 100 µM. The TGI (EKVX NSCLC) was 82.1 µM, the TGI (HCC-2998 colon) was 50.6 µM and the TGI (HCT-116 colon) was 39.6 µM. The TGI (HCT-15 colon) was 75.6 µM, the TGI (HL-60(TB) leukemia) was 58.4 µM and the TGI (HOP-62 NSCLC) was > 100 µM. The TGI (HOP-92 NSCLC) was 58 µM, the TGI (HS 578T breast) was 61.2 µM and the TGI (HT29 colon) was > 100 µM. For the same compound, the TGI (IGROV1 ovarian) was > 100 µM, the TGI (K-562 leukemia) was 46.3 µM and the TGI (KM12 colon) was > 100 µM. The TGI (LOX IMVI melanoma) was > 100 µM, the TGI (M14 melanoma) was 49.1 µM and the TGI (MALME-3M melanoma) was 54.3 µM. For the same compound, the TGI (MCF7 breast) was > 100 µM, the TGI (MDA-MB-231 breast) was > 100 µM and the TGI (MDA-MB-435) was 60.7 µM. The TGI (MDA-N) was 99.2 µM, the TGI (MOLT-4 leukemia) was 54.5 µM and the TGI (NCI-H226 lung) was 63.3 µM. The TGI (NCI-H23 lung) was 94 µM, the TGI (NCI-H460 lung) was 65.8 µM and the TGI (NCI-H522 lung) was 50.7 µM. For the same compound, the TGI (NCI/ADR-RES ovarian) was 72.6 µM, the TGI (OVCAR-3 ovarian) was 66.5 µM and the TGI (OVCAR-4 ovarian) was > 100 µM. For the same compound, the TGI (OVCAR-5 ovarian) was > 100 µM, the TGI (OVCAR-8 ovarian) was > 100 µM and the TGI (PC-3 prostate) was 63.9 µM. The TGI (RPMI-8226 leukemia) was 68.3 µM, the TGI (RXF 393 renal) was > 100 µM and the TGI (SF-268 CNS) was > 100 µM. For the same compound, the TGI (SF-295 CNS) was > 100 µM, the TGI (SF-539 CNS) was > 100 µM and the TGI (SK-MEL-2 melanoma) was 30.3 µM. For the same compound, the TGI (SK-MEL-28 melanoma) was > 100 µM, the TGI (SK-MEL-5 melanoma) was 35.9 µM and the TGI (SK-OV-3 ovarian) was > 100 µM. For the same compound, the TGI (SN12C renal) was > 100 µM, the TGI (SNB-19 CNS) was > 100 µM and the TGI (SNB-75 CNS) was > 100 µM. For the same compound, the TGI (SW-620 colon) was > 100 µM, the TGI (T-47D breast) was > 100 µM and the TGI (TK-10 renal) was 82.3 µM. It also gave a TGI (U251 CNS) of 37.7 µM, a TGI (UACC-257 melanoma) of 87 µM and a TGI (UACC-62 melanoma) of 37.4 µM. It also gave a TGI (UO-31 renal) of 42.6 µM.

Compound `Cc1cc(=O)oc2c(C)c3oc(CBr)cc3cc12` has a TGI (786-0 renal) of 32 µM, a TGI (A549 NSCLC) of 33.3 µM and a TGI (ACHN renal) of 29.8 µM. It also gave a TGI (BT-549 breast) of 33.5 µM, a TGI (CAKI-1 renal) of 31.8 µM and a TGI (CCRF-CEM leukemia) of 54.2 µM. The TGI (COLO 205 colon) was 34.2 µM, the TGI (DU-145 prostate) was > 100 µM and the TGI (EKVX NSCLC) was > 100 µM. It also gave a TGI (HCC-2998 colon) of 31.9 µM, a TGI (HCT-116 colon) of 39.4 µM and a TGI (HCT-15 colon) of 44.3 µM. The TGI (HL-60(TB) leukemia) was > 100 µM, the TGI (HOP-62 NSCLC) was 33.6 µM and the TGI (HS 578T breast) was > 100 µM. The TGI (HT29 colon) was 79.9 µM, the TGI (IGROV1 ovarian) was 33.3 µM and the TGI (K-562 leukemia) was 46.7 µM. It also gave a TGI (KM12 colon) of 42.1 µM, a TGI (LOX IMVI melanoma) of 31.1 µM and a TGI (M14 melanoma) of 34.8 µM. For the same compound, the TGI (MALME-3M melanoma) was 40.3 µM, the TGI (MCF7 breast) was > 100 µM and the TGI (MDA-MB-231 breast) was 84.7 µM. It also gave a TGI (MDA-MB-435) of 37.7 µM, a TGI (MDA-N) of 40.9 µM and a TGI (MOLT-4 leukemia) of 54.3 µM. It also gave a TGI (NCI-H226 lung) of 34 µM, a TGI (NCI-H23 lung) of 40 µM and a TGI (NCI-H460 lung) of 36.4 µM. The TGI (NCI-H522 lung) was 30.1 µM, the TGI (NCI/ADR-RES ovarian) was 58.1 µM and the TGI (OVCAR-3 ovarian) was > 100 µM. For the same compound, the TGI (OVCAR-4 ovarian) was 65.1 µM, the TGI (OVCAR-5 ovarian) was 36.8 µM and the TGI (OVCAR-8 ovarian) was 66.7 µM. For the same compound, the TGI (PC-3 prostate) was 35 µM, the TGI (RPMI-8226 leukemia) was 42.6 µM and the TGI (SF-268 CNS) was 51.5 µM. For the same compound, the TGI (SF-295 CNS) was 34.3 µM, the TGI (SF-539 CNS) was 50.7 µM and the TGI (SK-MEL-2 melanoma) was 54 µM. It also gave a TGI (SK-MEL-28 melanoma) of 43.6 µM, a TGI (SK-MEL-5 melanoma) of 26 µM and a TGI (SK-OV-3 ovarian) of 75.4 µM. For the same compound, the TGI (SN12C renal) was 42.2 µM, the TGI (SNB-19 CNS) was > 100 µM and the TGI (SNB-75 CNS) was 47.4 µM. The TGI (SR leukemia) was > 100 µM, the TGI (SW-620 colon) was 30.2 µM and the TGI (T-47D breast) was 60.8 µM. It also gave a TGI (TK-10 renal) of 89.6 µM, a TGI (U251 CNS) of 47.1 µM and a TGI (UACC-257 melanoma) of 52.5 µM. The TGI (UACC-62 melanoma) was 33.9 µM and the TGI (UO-31 renal) was 30.3 µM.
